Measurements from PubChem BioAssay (NCI).
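Protocol summary: plate cells (96-well), add compound at 5 concentrations, incubate 48 h, interpolate endpoints linearly. GI50 is the concentration that inhibits growth by half. TGI is the concentration that stops growth completely.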

Tests used:
Experiment in all cases: inhibition of tumour cell growth, NCI panel, 48 h
DU-145 prostate = system: DU-145 prostate
EKVX NSCLC = system: EKVX NSCLC
M14 melanoma = system: M14 melanoma
OVCAR-4 ovarian = system: OVCAR-4 ovarian
OVCAR-5 ovarian = system: OVCAR-5 ovarian
OVCAR-8 ovarian = system: OVCAR-8 ovarian
SNB-19 CNS = system: SNB-19 CNS
T-47D breast = system: T-47D breast
UACC-62 melanoma = system: UACC-62 melanoma
UO-31 renal = system: UO-31 renal

Row | Structure (SMILES) | GI50 (DU-145 prostate) [µM] | TGI (DU-145 prostate) [µM] | GI50 (EKVX NSCLC) [µM] | TGI (EKVX NSCLC) [µM] | GI50 (M14 melanoma) [µM] | TGI (M14 melanoma) [µM] | GI50 (OVCAR-4 ovarian) [µM] | TGI (OVCAR-4 ovarian) [µM] | GI50 (OVCAR-5 ovarian) [µM] | TGI (OVCAR-5 ovarian) [µM] | GI50 (OVCAR-8 ovarian) [µM] | TGI (OVCAR-8 ovarian) [µM] | GI50 (SNB-19 CNS) [µM] | TGI (SNB-19 CNS) [µM] | GI50 (T-47D breast) [µM] | TGI (T-47D breast) [µM] | GI50 (UACC-62 melanoma) [µM] | TGI (UACC-62 melanoma) [µM] | GI50 (UO-31 renal) [µM] | TGI (UO-31 renal) [µM]
1 | O[C@@H]1CCCN1Cc1cc2cc3c(cc2c2cc(OCc4ccccc4)ccc12)OCO3 | 5.24 | 21.8 | 11.6 | 27.3 | 1.81 | 3.35 | 5.45 | 20.3 | 5.64 | 21.2 | 3.93 | 17.6 | 6.23 | 21.4 | 2.93 | 11.7 | 1.97 | 3.68 | 11.2 | 25.2
2 | COc1cc(OC)c2cc(C(=O)O)c(=O)oc2c1 | > 100 | > 100 | > 100 | > 100 | > 100 | > 100 | > 100 | > 100 | > 100 | > 100 | > 100 | > 100 | > 100 | > 100 | > 100 | > 100 | > 71.8 | > 100 | > 61.7 | > 100
3 | COc1cc(C(=O)/C=C/c2c(-c3ccc(F)cc3)nc3ncccn23)cc(OC)c1OC | 1.63 | 6.11 | 2.71 | > 100 | – | – | 2.93 | > 100 | 2.46 | 7.37 | 2.69 | > 100 | 3.12 | 15.5 | 2.09 | 9.22 | – | – | 0.73 | > 100
4 | Cc1cc(O)ccc1O | 17.4 | 31.6 | 36.9 | > 100 | – | – | 15.6 | 29 | 16.6 | 32.1 | 32.7 | > 100 | 41.4 | > 100 | 18.2 | 60.8 | 17.9 | 81.3 | 13.4 | 26.2
5 | C/C1=C\CC[C@@]2(C)O[C@@H]2C[C@@H]2[C@H](C/C(C)=C/CC1)OC(=O)C21CCN=N1 (stereo partly specified) | > 100 | > 100 | > 100 | > 100 | > 100 | > 100 | – | 75 | > 100 | > 100 | > 100 | > 100 | > 100 | > 100 | – | > 100 | > 100 | > 100 | > 100 | > 100
6 | Cn1ccnc1C(=O)/C=C/c1ccc(C(=O)Nc2ccccc2O)cc1 | 1.95 | 5.23 | 2.45 | 7.09 | 1.82 | 4.28 | 2.5 | 12.5 | 2.39 | 7.09 | 3.29 | 14.9 | 2.6 | 11.5 | 2.68 | 10.8 | 1.93 | 5.01 | 1.24 | 2.5
7 | Cc1nc(N)sc1N=Nc1cc(Cl)c([N+](=O)[O-])cc1Cl | – | 32.5 | – | 37.7 | – | > 100 | – | – | – | 84.6 | – | 36.8 | – | > 100 | – | > 100 | – | 36.1 | – | 66.9
